{"source": "patent US11866409B2", "about": "“Apoptosis related protein in the tgf-beta signaling pathway (ARTS) mimetic compounds, compositions, methods and uses thereof in induction of differentiation and/or apoptosis of premalignant and malignant cells, thereby restoring their normal-like phenotype” (CARMEL-HAIFA UNIVERSITY ECONOMIC CORPORATION LTD., priority 2015, dated 2024)", "key": {"[1]": {"target": "T1, fluorescently labeled Bir3 (His-tagged) domain of XIAP, residues 252-350 (Homo sapiens, UniProt P98170)", "T1 construct": "His-tagged Bir3 (XIAP 252-350) was expressed and purified; made in house", "T1 sequence (P98170 252-350)": "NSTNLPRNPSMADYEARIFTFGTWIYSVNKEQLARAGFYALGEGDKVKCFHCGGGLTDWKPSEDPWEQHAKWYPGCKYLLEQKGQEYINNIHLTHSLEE", "experiment": "MicroScale Thermophoresis (MST) binding to Bir3 domain of XIAP", "conditions": "340 nM fl-labeled Bir3, pH 5.6, 2% DMSO, read-out: calculated Kd", "method": "His-tagged Bir3 (XIAP 252-350) was expressed and purified as previously described (Reingewertz et al, 2011). The purified Bir3 was labeled with the Monolith NT™ Protein Labeling Kit RED according to the supplied labeling protocol.\n(§1) 340 nM of fl-labeled Bir3 was titrated with A4 compound in 1:1 dilutions beginning at 500 μM, in a 25 mM Tri-Sodium acetate buffer pH 5.6, 2% DMSO and 0.05% Tween 20. The measurements were performed on a NanoTemper Monolith instrument.\n(§2) To further characterize the A4 candidate, MicroScale Thermophoresis (MST) was used to evaluate the binding of the A4 compound to fluorescently labeled Bir3 (His-tagged) domain of XIAP, residues 252-350. […] Microscale thermophoresis (MST) is a technology for the interaction analysis of biomolecules. Microscale thermophoresis is the directed movement of particles in a microscopic temperature gradient. Any change of the hydration shell of biomolecules due to changes in their structure/conformation results in a relative change of the movement along the temperature gradient and is used to determine binding affinities. MST allows measurement of interactions directly in solution without the need of immobilization to a surface (immobilization-free technology)."}, "[2]": {"target": "recombinant GST-tagged XIAP (Homo sapiens, UniProt P98170)", "sequence (P98170 whole entry)": "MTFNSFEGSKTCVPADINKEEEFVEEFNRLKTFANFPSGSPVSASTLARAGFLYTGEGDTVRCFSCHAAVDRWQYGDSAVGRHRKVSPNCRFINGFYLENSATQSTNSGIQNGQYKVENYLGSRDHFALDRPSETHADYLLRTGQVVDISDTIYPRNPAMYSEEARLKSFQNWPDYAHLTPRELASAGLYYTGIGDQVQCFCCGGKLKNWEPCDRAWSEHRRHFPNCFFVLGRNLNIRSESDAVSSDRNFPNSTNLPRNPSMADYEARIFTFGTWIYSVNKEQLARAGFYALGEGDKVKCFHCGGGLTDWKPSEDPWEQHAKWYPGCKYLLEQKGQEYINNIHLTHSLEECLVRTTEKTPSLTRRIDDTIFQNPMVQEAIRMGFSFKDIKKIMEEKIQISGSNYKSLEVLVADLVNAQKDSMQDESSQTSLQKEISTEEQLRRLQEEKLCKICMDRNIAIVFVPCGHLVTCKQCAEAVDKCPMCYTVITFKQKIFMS", "experiment": "MicroScale Thermophoresis (MST) binding to whole XIAP", "conditions": "GST-tagged XIAP (FIG. 4D), read-out: calculated Kd", "method": "as §1, §2\nTo further characterize the A4 candidate, the MSTtechnology described above was used to evaluate the binding of the A4 compound to recombinant GST-tagged XIAP, as presented in FIG. 4D."}, "[3]": {"test_system": "Bcl-2", "experiment": "Western blot, A375 human melanoma cells", "assay_type": "cell-based", "conditions": "20 μM, 24 hrs", "method": "(§3) The cells were lysed in WCE (whole-cell extract) buffer [[…] Hepes, pH 7.7, 0.3M NaCl, 1.5 mM MgCl2, 0.2 mM EDTA, 0.1% Triton X-100, 100 μg/ml PMSF and protease inhibitor cocktail (Roche, 1:100 dilution)]. 100 μg of total cell protein, measured with the Bio-Rad Protein Assay kit, were separated by SDS-PAGE (12%) followed by transfer for 2 h on to a nitrocellulose membrane. The membrane was blocked with 5% (w/v) non-fat dried skimmed milk powder in PBS supplemented with 0.05% Tween20 (PBS-T) for 1 hour at room temperature (R.T). Membrane was then probed with primary antibody at 4° C. overnight. Next, the membrane was incubated with the appropriate HRP-conjugated secondary antibody, for 1 hour at R.T. and washed 15 min×3 with PBS-T. WesternBright ECL (Advansta) was added to the membrane for 2 min and analyzed using ImageQuant LAS-4000 analyzer (GE Healthcare Life Sciences) & “ImageQuant LAS-4000” software (GE Healthcare Life Sciences). Densitometry analysis was performed using ImageQuant total lab 7 (GE Healthcare Life Sciences), image analysis software.\n(§4) The candidate molecules were next subjected to functional assays, examining their ability to induce apoptosis. Therefore, the expression of several apoptotic markers was examined in A375 human melanoma cells exposed to 20 μM of each of the candidate compounds. […] No effect on cCaspase or c-PARP was shown."}, "[4]": {"test_system": "c-PARP", "experiment": "Western blot, A375 human melanoma cells", "assay_type": "cell-based", "conditions": "20 μM, 24 hrs", "method": "as §3, §4"}, "[5]": {"test_system": "cCaspase", "experiment": "Western blot, A375 human melanoma cells", "assay_type": "cell-based", "conditions": "20 μM, 24 hrs", "method": "as §3, §4"}, "[6]": {"test_system": "Bcl-2", "experiment": "Proteasome-mediated degradation study, T47D breast cancer cells", "assay_type": "cell-based", "method": "as §3\n(§5) T47D breast cancer cells: 1*10^6 T47D cells were seeded on a 10 cm plate in RPMI and were propagated to 80% confluence. Cells were treated for 1 hour with either DMSO (control) or 30 μM A4 together with 20 μM MG-132 (proteasome inhibitor) or without MG-132. […]"}, "[7]": {"test_system": "Bcl-2", "experiment": "Proteasome-mediated degradation study, HeLa cervical cancer cells", "assay_type": "cell-based", "method": "as §3\n(§6) HeLa cervical cancer cells: 1.5*10^6 HeLa cells were seeded on a 10 cm plate in DMEM and were propagated to 80% confluence. Cells were treated for 2 hour with either DMSO (control) or 30 μM A4 together with 20 μM MG-132 (proteasome inhibitor) or without MG-132. […]"}, "[8]": {"test_system": "M2 cells (MCF10AT1K, premalignant breast cells)", "experiment": "Proliferation assay of M2 cells in 2D culture", "assay_type": "cell-based, human", "conditions": "24 and 48 hours", "method": "Human breast cancer cell lines MCF-10A (M1) was received from Prof. Israel Vlodavsky (Technion, Israel), MCF10AT1K (M2) and MCF10ACA1 h (M3) were received from Dr. Fred Miller (Barbara Ann Karmanos Cancer Institute). M1 and M2 cells were maintained in DMEM/F12 supplemented with 5% donor horse serum (DHS), 1% sodium pyrovate, 1% L-glutamine, 0.02 μg/ml epidermal growth factor (EGF; Peprotech), 0.01 mg/ml insulin (Sigma), 0.5 μg/ml hydrocortisone (Sigma), 0.1 μg/ml cholera toxin (Sigma) and 1% penicillin-streptomycin at 37° C., 5% CO2 incubator. M3 cells were maintained in DMEM/F12 supplemented with 5% DHS and 1% penicillin-streptomycin at 37° C. and incubated in 5% CO2 incubator.\nThe CellTiter 96 AqueousOne Solution of cell proliferation assay kit (Promega) was added to the wells for 2 hours to measure cell proliferation according the manufacturer's instructions. The absorbance was recorded at 490 nm."}, "[9]": {"test_system": "M2 organoids", "experiment": "M2 organoids in 3D BME culture, polarization and lumen formation", "assay_type": "cell-based, human", "method": "Cells were harvested from their growth plates using 0.25% trypsin EDTA. Collected cells were cultured in Cultrex® growth factor reduced Basement Membrane Extract (BME: Trevigen, Inc) as follows: An 8 chamber glass slide system (Lab-TEK® II, Naperville, IL) was coated with 60 μl BME [Barkan D. et al., Cancer Research (2008)](protein concentration between 15 mg/ml; thickness˜1-2 mm). 5×10^3 cells per well were re-suspended in DMEM/F12 supplemented with 2.5% DHS and 2% BME and cultured on the coated slides. Slides were incubated at 37° C., 5% CO2 incubator. Cells were re-fed every 4 days. Cell morphology was monitored by light microscopy. Immunofluorescence images were captured by Nikon A1-R confocal laser scanning microscope (Haifa University, Haifa, Israel).\nLaminin5 immunofluorescence staining: was performed as described by Barkan et al., [Cancer Research (2008)]. Briefly, cells cultured in 8 well chamber glass slides in 3D BME, as described above. The cultured cells were fixed and permeabalized for 5 minutes with 4% Paraformaldehyde (PFA) containing 5% sucrose and 0.2% Triton X-100, and re-fixed for an additional 25 minutes with 4% PFA containing 5% sucrose. The cells were washed for 10 minutes with PBS and an additional 10 minutes with PBS containing 0.05% Tween 20 (Sigma). Fixed cells were blocked with 3% BSA in PBS for 1 hour and incubated overnight at 4° C. with primary antibody (Rabbit polyclonal antibody to Laminin-5 (1:200)). The cells were washed three times with PBS for 15 minutes each, and incubated for 1 hour with […] conjugated to Alexa Fluor®647 (Invitrogen), washed as above and mounted with VECTASHIELD mounting medium with 4′,6-diamidino-2-phenylindole (DAPI). For F-actin staining cells were incubated over night with Alexa-Fluor®488 Phalloidin (1:40) (Molecular Probes) washed three times with PBS for 15 minutes each, and mounted with VECTASHIELD mounting medium with DAPI. The slides were imaged using Nikon A1-R confocal laser scanning microscope (Haifa University, Haifa, Israel). […]"}, "[10]": {"test_system": "293 cells stably expressing Bcl-2 cherry reporter", "experiment": "Combination with BH3 mimetic in Bcl-2 cherry reporter cells", "assay_type": "cell-based", "conditions": "A4 combined with ABT199, 293 cells Bcl-2 cherry reporter", "method": "pcDNA-3.1 vector carrying Bcl2 with an mCherry fusion c′ terminus fluorescent tag and neomycin (G418) resistance sequences was transfected into HEK 293T cells using Turbofect (Fermentas). Cells were then treated with G418, and resistant fluorescent cells were further sorted and isolated by FACS-sorter. Mono-clones of the stably expressing Bcl2-mCherry and G418 resistance were propagated and used for the experiments."}, "[11]": {"target": "T2, XIAP (Homo sapiens, UniProt P98170)", "T2 sequence (P98170 whole entry)": "as above", "experiment": "Proteasome-mediated degradation study, T47D breast cancer cells", "assay_type": "cell-based", "design": "endogenous in cells; host or cells: T47D breast cancer cells", "method": "as §3, §5"}, "[12]": {"target": "T2, XIAP", "experiment": "Western blot, A375 human melanoma cells", "assay_type": "cell-based", "design": "endogenous in cells; host or cells: A375 human melanoma cells", "conditions": "20 μM, 24 hrs", "method": "as §3, §4"}, "[13]": {"target": "T2, XIAP", "experiment": "Proteasome-mediated degradation study, HeLa cervical cancer cells", "assay_type": "cell-based", "design": "endogenous in cells; host or cells: HeLa cervical cancer cells", "method": "as §3, §6"}, "[14]": {"test_system": "6myc-ARTS", "experiment": "Western blot, M2 cells transfected with 6myc-ARTS, caspase inhibition", "assay_type": "cell-based, human", "method": "(§7) The cells were transfected with either 6-MycTag-ARTS in pCS2 or sport-ARTS in pCMV plasmid, that was produced in Sarit Larisch lab as described previously (Larisch & Yi […]). For the transfection the Turbofect (Fermentas) was used with concentration of 0.1 μg/l DNA for 6-MycTag-ARTS and sport-ARTS plasmid.\nas §3\n(§8) The inventors next examined whether caspases mediate the cleavage of the N′-terminal part of ARTS. To this end, the inventors transfected M2 cells with 6myc-ARTS and cells were either untreated or treated with a pan inhibitor of all caspases, Q-VD. […] In contrast, no change in XIAP levels was shown (FIG. 7D)."}, "[15]": {"test_system": "Bcl-2", "experiment": "Western blot, M2 cells transfected with 6myc-ARTS, caspase inhibition", "assay_type": "cell-based, human", "method": "as §7, §3, §8"}, "[16]": {"test_system": "XIAP", "experiment": "Western blot, M2 cells transfected with 6myc-ARTS, caspase inhibition", "assay_type": "cell-based, human", "method": "as §7, §3, §8"}, "[17]": {"conditions": "30 μM A4 + 20 μM MG-132, 1 hour"}, "[18]": {"conditions": "30 μM A4 + 20 μM MG-132, 2 hour"}}, "data": [{"compound": "COC(=O)c1[nH]c2ccc(Cl)cc2c1NC(=O)CN1CCN(Cc2ccccc2)CC1", "note": "[A4, methyl 5-chloro-3-[[2-[4-(phenylmethyl)piperazin-1-yl]acetyl]amino]-1H-indole-2-carboxylate]", "values": [{"measurement": "Kd", "setting": "[1]", "value": "46.1 ± 3.65", "unit": "µM"}, {"measurement": "Kd", "setting": "[2]", "value": "34.6 ± 2.48", "unit": "µM"}, {"measurement": "levels of Bcl-2", "setting": "[3]", "value": "clearly reduced"}, {"measurement": "effect on c-PARP", "setting": "[4]", "value": "No effect"}, {"measurement": "effect on cCaspase", "setting": "[5]", "value": "No effect"}, {"measurement": "Bcl-2 levels with proteasome inhibitor", "setting": "[6]; [17]", "value": "restored"}, {"measurement": "Bcl-2 levels", "setting": "[6]; 30 μM A4, 1 hour", "value": "decrease"}, {"measurement": "Bcl-2 levels with proteasome inhibitor", "setting": "[7]; [18]", "value": "restored"}, {"measurement": "Bcl-2 levels", "setting": "[7]; 30 μM A4, 2 hour", "value": "decrease"}, {"measurement": "apoptotic cells", "setting": "[8]", "value": "only low amount of apoptotic cells"}, {"measurement": "cell proliferation", "setting": "[8]", "value": "decrease in cell proliferation"}, {"measurement": "apicobasal polarization (GM130, Laminin 5 staining)", "setting": "[9]; 40 μM, 7 days", "value": "initiation of apical staining of GM130 and basal staining of Laminin 5"}, {"measurement": "organoid phenotype", "setting": "[9]; 40 uM, 14 days", "value": "conversion thereof to a normal-like phenotype"}, {"measurement": "polarization and lumen formation", "setting": "[9]; 40 uM, 14 days", "value": "apicobasal polarization of M2 organoids followed by luminal formation"}, {"measurement": "effect of combination with BH3 mimetic", "setting": "[10]", "value": "synergetic effect"}, {"measurement": "XIAP levels with proteasome inhibitor", "setting": "[11]; [17]", "value": "restored"}, {"measurement": "XIAP levels", "setting": "[11]; 30 μM A4, 1 hour", "value": "specific decrease"}, {"measurement": "levels of XIAP", "setting": "[12]", "value": "clearly reduced"}, {"measurement": "XIAP levels with proteasome inhibitor", "setting": "[13]; [18]", "value": "restored"}, {"measurement": "XIAP levels", "setting": "[13]; 30 μM A4, 2 hour", "value": "specific decrease"}]}, {"compound": "CC(C)[C@H](NC(=O)c1ccc2ccccc2n1)C(=O)N[C@@H](CC(=O)O)C(=O)COc1c(F)cccc1F", "note": "[Q-VD]", "values": [{"measurement": "cleaved 6-myc ARTS", "setting": "[14]", "value": "decrease"}, {"measurement": "uncleaved 6myc-ARTS", "setting": "[14]", "value": "increase"}, {"measurement": "Bcl-2 levels", "setting": "[15]", "value": "significantly increased"}, {"measurement": "XIAP levels", "setting": "[16]", "value": "no change"}]}]}
